Experimental data reported in patent US10807952B2 (Achillion Pharmaceuticals, Inc., priority 2015, dated 2020).

molecular target: Human Factor D (Homo sapiens (Human), UniProt P00746); assay: Human Factor D assay (Z-L-Lys-SBzl / DTNB, absorbance at 405 nm); type: biochemical; conditions: Table 3; Human Factor D 80 nM, assay of Example 13
Protocol: Human Factor D (purified from human serum, Complement Technology, Inc.) at 80 nM final concentration was incubated with test compound at various concentrations for 5 minutes at room temperature in 50 mM Tris, 1M NaCl, pH 7.5. A synthetic substrate Z-L-Lys-SBzl and DTNB (Ellman's reagent) were added to final concentrations of 100 μM each. […] IC50 values were calculated by nonlinear regression of complement Factor D reaction rates as a function of test compound concentration.

Human Factor D, sequence (P00746 26-253): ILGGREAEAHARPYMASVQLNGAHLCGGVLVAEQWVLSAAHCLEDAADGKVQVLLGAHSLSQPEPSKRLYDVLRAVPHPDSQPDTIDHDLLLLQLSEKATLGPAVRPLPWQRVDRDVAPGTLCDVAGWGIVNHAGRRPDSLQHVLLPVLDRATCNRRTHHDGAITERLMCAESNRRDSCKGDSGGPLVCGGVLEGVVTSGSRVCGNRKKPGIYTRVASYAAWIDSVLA

| SMILES | IC50 [nM] |
| --- | --- |
| CC(=O)c1cn(CC(=O)N2C[C@H](F)C[C@H]2C(=O)Nc2cccc(-c3ccc4[nH]cnc4c3Cl)c2F)c2ccccc12 [Compound 2, (2S,4R)-1-(2-(3-acetyl-1H-indol-1-yl)acetyl)-N-(3-(4-chloro-1H-benzo[d]imidazol-5-yl)-2-fluorophenyl)-4-fluoropyrrolidine-2-carboxamide] | < 1000 |
| CC(=O)c1nn(CC(=O)N2C[C@H](F)C[C@H]2C(=O)Nc2cccc(-c3ccc4[nH]cnc4c3Cl)c2F)c2ccccc12 [Compound 3, (2S,4R)-1-(2-(3-acetyl-1H-indazol-1-yl)acetyl)-N-(3-(4-chloro-1H-benzo[d]imidazol-5-yl)-2-fluorophenyl)-4-fluoropyrrolidine-2-carboxamide] | < 1000 |
| CC(=O)c1nn(CC(=O)N2[C@@H]3C[C@@H]3C[C@H]2C(=O)Nc2cccc(-c3ccc4[nH]cnc4c3Cl)c2F)c2ccccc12 [Compound 5, (1R,3S,5R)-2-(2-(3-acetyl-1H-indazol-1-yl)acetyl)-N-(3-(4-chloro-1H-benzo[d]imidazol-5-yl)-2-fluorophenyl)-2-azabicyclo[3.1.0]hexane-3-carboxamide] | < 1000 |
| NC(=O)c1nn(CC(=O)N2C[C@H](F)C[C@H]2C(=O)Nc2cccc(-c3ccc4[nH]cnc4c3)c2F)c2ccccc12 [Compound 6, 1-(2-((2S,4R)-2-(3-(1H-benzo[d]imidazol-5-yl)-2-fluorophenyl-carbamoyl)-4-fluoropyrrolidin-1-yl)-2-oxoethyl)-1H-indazole-3-carboxamide] | < 1000 |
| CC(=O)c1cn(CC(=O)N[C@H](C(=O)Nc2cccc(-c3ccccc3Cl)c2F)[C@@H](C)O)c2ccccc12 [Compound 7, (2S,3R)-2-(2-(3-Acetyl-1H-indol-1-yl)acetamido)-N-(2′-chloro-2-fluorobiphenyl-3-yl)-3-hydroxybutanamide] | < 1000 |
| CO/N=C(\C)c1ccc(Cl)c(-c2cccc(NC(=O)[C@@H]3C[C@@H](F)CN3C(=O)Cn3nc(C(N)=O)c4ccccc43)c2F)c1 [Compound 8, 1-(2-((2S,4R)-2-((2′-Chloro-2-fluoro-5′-((E)-1-(methoxyimino)ethyl)-[1,1′-biphenyl]-3-yl)carbamoyl)-4-fluoropyrrolidin-1-yl)-2-oxoethyl)-1H-indazole-3-carboxamide] | < 1000 |
| NC(=O)c1nn(CC(=O)N2C[C@H](F)C[C@H]2C(=O)Nc2cccc(-c3ccc4[nH]c(C(F)(F)F)nc4c3Cl)c2F)c2ccccc12 [Compound 9, 1-(2-((2S,4R)-2-(3-(4-chloro-2-(trifluoromethyl)-1H-benzo[d]imidazol-5-yl)-2-fluorophenyl-carbamoyl)-4-fluoropyrrolidin-1-yl)-2-oxoethyl)-1H-indazole-3-carboxamide] | < 1000 |
| Cc1nc2cc(-c3cccc(NC(=O)[C@@H]4C[C@@H](F)CN4C(=O)Cn4nc(C(N)=O)c5ccccc54)c3F)ccc2[nH]1 [Compound 10] | < 1000 |
| NC(=O)c1nn(CC(=O)N2C[C@H](F)C[C@H]2C(=O)Nc2cccc(-c3ccc4[nH]c(=O)[nH]c4c3Cl)c2F)c2ccccc12 [Compound 11, 1-(2-((2S,4R)-2-((3-(4-Chloro-2-oxo-2,3-dihydro-1H-benzo[d]imidazol-5-yl)-2-fluorophenyl)carbamoyl)-4-fluoropyrrolidin-1-yl)-2-oxoethyl)-1H-indazole-3-carboxamide] | < 1000 |
| Cc1nc2c(Cl)c(-c3cccc(NC(=O)[C@@H]4C[C@@H](F)CN4C(=O)Cn4nc(C(N)=O)c5ccccc54)c3F)ccc2[nH]1 [Compound 12, 1-(2-((2S,4R)-2-(3-(4-chloro-2-methyl-1H-benzo[d]imidazol-5-yl)-2-fluorophenyl-carbamoyl)-4-fluoropyrrolidin-1-yl)-2-oxoethyl)-1H-indazole-3-carboxamide] | < 1000 |
| N#Cc1n[nH]c2ccc(-c3cccc(NC(=O)[C@@H]4C[C@@H](F)CN4C(=O)Cn4nc(C(N)=O)c5ccccc54)c3F)cc12 [Compound 13, 1-(2-((2S,4R)-2-(3-(3-cyano-1H-indazol-5-yl)-2-fluorophenyl-carbamoyl)-4-fluoropyrrolidin-1-yl)-2-oxoethyl)-1H-indazole-3-carboxamide] | < 1000 |
| C[C@H](O)c1nc2c(Cl)c(-c3cccc(NC(=O)[C@@H]4C[C@@H](F)CN4C(=O)Cn4nc(C(N)=O)c5ccccc54)c3F)ccc2[nH]1 [Compound 14, 1-(2-((2S,4R)-2-((3-(7-Chloro-2-((S)-1-hydroxyethyl)-1H-benzo[d]imidazol-6-yl)-2-fluorophenyl)carbamoyl)-4-fluoropyrrolidin-1-yl)-2-oxoethyl)-1H-indazole-3-carboxamide] | < 1000 |
| CC(=O)c1cn(CC(=O)N(C)[C@H](C(=O)Nc2cccc(-c3ccccc3Cl)c2F)[C@@H](C)O)c2ccccc12 [Compound 15, (2S,3R)-2-(2-(3-acetyl-1H-indol-1-yl)-N-methylacetamido)-N-(2′-chloro-2-fluorobiphenyl-3-yl)-3-hydroxybutanamide] | 1000 to 10000 |
| CC(=O)c1cn(CC(=O)N[C@H](C(=O)Nc2cccc(Br)n2)[C@@H](C)O)c2ccccc12 [Compound 16, (2S,3R)-2-(2-(3-acetyl-1H-indol-1-yl)acetamido)-N-(6-bromopyridin-2-yl)-3-hydroxybutanamide] | 1000 to 10000 |
| NC(=O)c1nn(CC(=O)N2C[C@H](F)C[C@H]2C(=O)Nc2cccc(-c3ccc4[nH]ncc4c3Cl)c2F)c2ccccc12 [Compound 17, 1-(2-((2S,4R)-2-(3-(4-chloro-1H-indazol-5-yl)-2-fluorophenyl-carbamoyl)-4-fluoropyrrolidin-1-yl)-2-oxoethyl)-1H-indazole-3-carboxamide] | < 1000 |
| CC(=O)c1nc2ccc(-c3cccc(NC(=O)[C@@H]4C[C@@H](F)CN4C(=O)Cn4nc(C(N)=O)c5ccccc54)c3F)c(Cl)c2[nH]1 [Compound 18, 1-(2-((2S,4R)-2-(3-(2-acetyl-7-chloro-1H-benzo[d]imidazol-6-yl)-2-fluorophenyl-carbamoyl)-4-fluoropyrrolidin-1-yl)-2-oxoethyl)-1H-indazole-3-carboxamide] | < 1000 |
| NC(=O)c1nn(CC(=O)N2C[C@H](F)C[C@H]2C(=O)Nc2cccc(-c3ccccc3Cl)c2F)c2cc(Cn3cc(C4CC4)nn3)sc12 [Compound 19, 1-(2-((2S,4R)-2-((2′-Chloro-2-fluoro-[1,1′-biphenyl]-3-yl)carbamoyl)-4-fluoropyrrolidin-1-yl)-2-oxoethyl)-5-((4-cyclopropyl-1H-1,2,3-triazol-1-yl)methyl)-1H-thieno[3,2-c]pyrazole-3-carboxamide] | < 1000 |
| Cn1cnc2c(Cl)c(-c3cccc(NC(=O)[C@@H]4C[C@@H](F)CN4C(=O)Cn4nc(C(N)=O)c5ccccc54)c3F)ccc21 [Compound 20, 1-(2-((2S,4R)-2-(3-(4-chloro-1-methyl-1H-benzo[d]imidazol-5-yl)-2-fluorophenyl-carbamoyl)-4-fluoropyrrolidin-1-yl)-2-oxoethyl)-1H-indazole-3-carboxamide] | < 1000 |
| NC(=O)c1cccc(CC(=O)N2C[C@H](F)C[C@H]2C(=O)Nc2cccc(-c3ccccc3Cl)c2F)c1 [Compound 21, (2S,4R)-1-(2-(3-carbamoylphenyl)acetyl)-N-(2′-chloro-2-fluorobiphenyl-3-yl)-4-fluoropyrrolidine-2-carboxamide] | < 1000 |
| NC(=O)c1cc(CC(=O)N2C[C@H](F)C[C@H]2C(=O)Nc2cccc(-c3ccccc3Cl)c2F)ccc1Cl [Compound 22, (2S,4R)-1-(2-(3-carbamoyl-4-chlorophenyl)acetyl)-N-(2′-chloro-2-fluorobiphenyl-3-yl)-4-fluoropyrrolidine-2-carboxamide] | 1000 to 10000 |
| N#Cc1cc(CC(=O)N2C[C@H](F)C[C@H]2C(=O)Nc2cccc(-c3ccccc3Cl)c2F)ccc1Cl [Compound 23, (2S,4R)-N-(2′-chloro-2-fluorobiphenyl-3-yl)-1-(2-(4-chloro-3-cyanophenyl)acetyl)-4-fluoropyrrolidine-2-carboxamide] | 1000 to 10000 |
| N#Cc1cccc(CC(=O)N2C[C@H](F)C[C@H]2C(=O)Nc2cccc(-c3ccccc3Cl)c2F)c1 [Compound 24, (2S,4R)-N-(2′-chloro-2-fluorobiphenyl-3-yl)-1-(2-(3-cyanophenyl)acetyl)-4-fluoropyrrolidine-2-carboxamide] | < 1000 |
| NC(=O)c1nn(CC(=O)N2C[C@H](F)C[C@H]2C(=O)Nc2cccc(-c3ccc4cc[nH]c4c3)c2F)c2ccccc12 [Compound 25, 1-(2-((2S,4R)-4-fluoro-2-(2-fluoro-3-(1H-indol-6-yl)phenylcarbamoyl)pyrrolidin-1-yl)-2-oxoethyl)-1H-indazole-3-carboxamide] | < 1000 |
| NC(=O)c1nn(CC(=O)N2C[C@H](F)C[C@H]2C(=O)Nc2cccc(-c3ccc4nc(N)[nH]c4c3Cl)c2F)c2ccccc12 [Compound 26, 1-(2-((2S,4R)-2-(3-(2-amino-7-chloro-1H-benzo[d]imidazol-6-yl)-2-fluorophenyl-carbamoyl)-4-fluoropyrrolidin-1-yl)-2-oxoethyl)-1H-indazole-3-carboxamide] | < 1000 |
| NC(=O)c1nn(CC(=O)N2C[C@H](F)C[C@H]2C(=O)Nc2cccc(-c3ccc4cn[nH]c4c3)c2F)c2ccccc12 [Compound 28, 1-(2-((2S,4R)-4-fluoro-2-(2-fluoro-3-(1H-indazol-6-yl)phenylcarbamoyl)pyrrolidin-1-yl)-2-oxoethyl)-1H-indazole-3-carboxamide] | < 1000 |
| NC(=O)c1nn(CC(=O)N2C[C@H](F)C[C@H]2C(=O)Nc2cccc(Br)n2)c2cc(Cn3cc(C4CC4)nn3)sc12 [Compound 29, 1-(2-((2S,4R)-2-(6-bromopyridin-2-ylcarbamoyl)-4-fluoropyrrolidin-1-yl)-2-oxoethyl)-5-((4-cyclopropyl-1H-1,2,3-triazol-1-yl)methyl)-1H-thieno[3,2-c]pyrazole-3-carboxamide] | < 1000 |
